Like-named read-outs stand apart in the source and are kept apart here.
What was measured:
[1] = Study CL-006 plasma PK; assay type: in vivo, human; conditions: for AUC(0-t): read-out: AUC0-8
From the text: Oteseconazole plasma concentrations continued to increase after the 7-day loading dose portion of the Maintenance Period until the end of dosing in an approximately dose-proportional manner FIG. 3.
Mean plasma PK parameters on Day 7 of the Maintenance Period are presented by treatment group in Table 12.

[2] = Phase 2b study and three Phase 3 studies, plasma concentration at end of dosing; assay type: in vivo; conditions: human, oral, loading dose Days 1 and 2, then 150 mg weekly, read-out: mean plasma concentrations at the end of the dosing period (Week 14)
Method: Oteseconazole dosing regimens will also incorporate a 150 mg once weekly maintenance dose phase for 11 weeks. The initial loading dose given on Days 1 and 2 combined with maintenance dosing of 150 mg oteseconazole weekly for a total treatment duration of 12 weeks was efficacious in preventing recurrence of acute VVC episodes for the duration of the study (48-50 weeks). Based on the PK results from a Phase 2b study and three Phase 3 studies, mean plasma concentrations of approximately 2.5 to 3.5 μg/mL are observed at the end of the dosing period (Week 14).

[3] = Study CL-004 plasma PK; assay type: in vivo, human; conditions: for concentration at 24 h / concentration at 168 day / half-life / Tmax / Cmax / AUC(0-t): human, plasma; for concentration at 24 h: read-out: predicted minimum concentration (Cmin) at 24 hours after the final Day 3 dose; for half-life: read-out: median t1/2 (converted); for Tmax: read-out: median Tmax; for AUC(0-t): read-out: AUC0-8
Method: The ty, values were estimated on the basis of blood sampling that was carried out between approximately 7 and 168 days after administration of the first dose. […] The oteseconazole concentrations on Day 168 remained measurable (127, 409, and 1300 ng/mL for the 300 mg QD, 600 mg QD, and 600 mg BID treatment groups, respectively) and remained at or above therapeutic concentrations for the 600 mg QD and 600 mg BID treatment groups.
Based on the calculated Cmin values, only about 50% of the target was met for the 300 mg QD and 600 mg QD treatment groups, with the 600 mg BID treatment group reaching the target anticipated for the 600 mg QD group.

[4] = Study CL-012 plasma concentrations; assay type: in vivo; conditions: human
Method: Oteseconazole mean (SD) plasma concentration increased with dosing for 12 weeks, reaching a maximum concentration of 3605.8 (1518.08) μg/L at Week 12. At the end of dosing, there was a slow decrease in oteseconazole plasma concentration, reaching 1122.0 (656.14) μg/L by Week 48 (FIG. 5). Following the loading dose regimen of 150 mg oteseconazole QD for 7 days, the mean (SD) oteseconazole plasma concentration at Day 14 was 1785.5 (747.75) μg/L.

[5] = Physicochemical and biological properties of drug substance
From the text: As a BCS Class IIc drug, it may be anticipated that dissolution may be dependent upon the drug substance particle size. (Tsume et al., 2014). Micronization of the drug substance provided a means to deliver drug substance with a small and consistent particle size. A discriminatory dissolution method was developed to show the effect of drug substance particle size on dissolution to help ensure product quality. […] A high shear wet granulation process was developed to densify the product, and improve its flow to enable manufacturing, while maintaining good dissolution from the formulation.

[6] = test system: acute VVC episodes; test: Study CL-012 culture-verified acute VVC episodes; assay type: in vivo, human; conditions: 150 mg QD for 7 days, then 150 mg QW for 11 weeks
Method: The average percentage of subjects with one or more culture-verified acute VVC episodes in the 150 mg oteseconazole group was 3.9% versus 39.4% in the placebo group.

[7] = human, plasma, 150 mg, Day 7, 150 mg, 12 weeks
[8] = human, plasma, 150 mg, Day 7, 150 mg, 24 weeks
[9] = human, plasma, 300 mg, Day 7, 300 mg, 12 weeks
[10] = human, plasma, 300 mg, Day 7, 300 mg, 24 weeks
[11] = 300 mg, 300 mg QD treatment group
[12] = 600 mg, 600 mg BID treatment group
[13] = 600 mg, 600 mg QD treatment group

- Tmax ([1]; Day 7, 150 mg, 24 weeks): 0.205 days
- Tmax ([1]; Day 7, 300 mg, 12 weeks): 0.205 days
- Cmax [1, 7]: 1340 ng/mL
- AUC(0-t) [1, 7]: 9120 ng·h/mL
- Cmax [1, 8]: 1800 ng/mL
- AUC(0-t) [1, 8]: 12300 ng·h/mL
- Cmax [1, 9]: 2750 ng/mL
- AUC(0-t) [1, 9]: 20500 ng·h/mL
- Cmax [1, 10]: 3120 ng/mL
- AUC(0-t) [1, 10]: 21600 ng·h/mL
- concentration at 48 week ([1]; human, plasma, 150 mg oteseconazole): 2150 ng/mL
- concentration at 48 week ([1]; human, plasma, 300 mg oteseconazole): 5090 ng/mL
- Tmax ([1]; human, plasma, Day 7, 150 mg, 12 weeks, read-out: Tmax): 0.167 days
- half-life ([1]; human, plasma, calculated using a population PK approach): ~171 days
- concentration at 14 week [2]: 2500 to 3500 ng/mL
- share of target Cmin met ([3]; 300 mg QD and 600 mg QD treatment groups): about 50%
- concentration at 24 h ([3]; 300 mg, 300 mg QD dose group): 705 ng/mL
- concentration at 168 day [3, 11]: 127 ng/mL
- half-life [3, 11]: 75.9 days
- concentration at 24 h ([3]; 600 mg, 600 mg BID dose group): 2830 ng/mL
- concentration at 168 day [3, 12]: 1300 ng/mL
- half-life [3, 12]: 160 days
- concentration at 24 h ([3]; 600 mg, 600 mg QD dose group): 1000 ng/mL
- concentration at 168 day [3, 13]: 409 ng/mL
- half-life [3, 13]: 133 days
- Tmax ([3]; 300 mg dose): 0.167 days
- Tmax ([3]; 600 mg dose): 0.229 days
- Cmax ([3]; Day 1, 300 mg dose): 407 ng/mL
- AUC(0-t) ([3]; Day 1, 300 mg dose): 1870 ng·h/mL
- Cmax ([3]; Day 1, 600 mg dose): 968 ng/mL
- AUC(0-t) ([3]; Day 1, 600 mg dose): 4230 ng·h/mL
- concentration at 12 week ([4]; 150 mg, Week 12, maximum concentration, read-out: mean (SD) plasma concentration): 3610 ng/mL
- concentration at 48 week ([4]; 150 mg, Week 48, read-out: mean (SD) plasma concentration): 1120 ng/mL
- concentration at 14 day ([4]; Day 14, after loading 150 mg QD for 7 days, read-out: mean (SD) plasma concentration): 1790 ng/mL
- BCS class [5]: BCS Class IIc
- hygroscopicity [5]: slightly hygroscopic
- stability to light [5]: stable in the presence of light
- solubility ([5]; BCS classification): low solubility
- chemical stability ([5]; alone and formulated into a drug product): excellent chemical stability
- bulk density ([5]; micronized drug substance): approximately 0.2 g/mL
Structure (SMILES): O[C@@](Cn1cnnn1)(c1ccc(F)cc1F)C(F)(F)c1ccc(-c2ccc(OCC(F)(F)F)cc2)cn1 [Oteseconazole, oteseconazole]
- ionization ([5]; pH range of the gastrointestinal tract): unionized throughout the pH range of the gastrointestinal tract
- average percentage of subjects with one or more culture-verified acute VVC episodes [6]: 3.9%

— patent US20240398773A1, “COMPOSITIONS COMPRISING OTESECONAZOLE” (Mycovia Pharmaceuticals, Inc., priority 2021, published 2024)
